Assay results: patent US20230131899A1, “INHIBITORS OF MICROBIALLY INDUCED AMYLOID” (Axial Therapeutics, Inc., priority 2020, published 2023)
Read-outs that look alike come from different tables or passages of the source.

Columns and labels:
[1] = tested on: CsgA gene expression (csgBAC promoter-GFP reporter) in E. coli UTI89; test: In vitro live cell fluorescent reporter assay of CsgA transcription (Reporter Assay); type: cell-based
Method in brief: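 Compounds at 0.14–100 μM (1% DMSO final) incubated 20 h at 27 °C in YESCA broth with UTI89 carrying a single-copy GFP reporter under the csgBAC intergenic promoter region, inoculum OD600 0.003. Fluorescence normalized to vehicle wells gave IC50 and 50%-of-vehicle concentration; OD600 reduction >10% flagged growth impact.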

E. coli CsgA = biological target: T1, E. coli CsgA (Escherichia coli, UniProt P28307); test: In vitro ThioflavinT assay of CsgA aggregation (CsgA ThT Assay); type: biochemical
T1 construct: made in house; host or cells: E. coli NEB 3016 slyD::kan, pET11d
Method in brief: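 Purified C-terminal His-tagged CsgA, monomerised by desalting and 30-kDa filtration, at 2-20 μM with 20-40 μM ThT in 50 mM potassium phosphate pH 7.3, 1% DMSO, compounds 3.125-200 uM; room temperature, fluorescence (ex 438/em 495 nm) read every 15 min. Background-subtracted signal expressed as percent inhibition versus vehicle at 6-6.5 or 8-9 h, or as percent control AUC.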

[2] = Escherichia coli, read-out: Reporter Assay Abs IC50 (activity range), median Abs IC50 in the CsgA reporter assay, class symbol
[3] = Escherichia coli, read-out: Reporter Assay Abs IC50 (μM), median Abs IC50 in the CsgA reporter assay, N/A = maximum expression reduction is <50% of control
[4] = read-out: CsgA ThT Assay (10 μM CsgA) % Control AUC at 1005 minutes, 25 μM (activity range), CsgA 10 μM, black plates, compound 25 μM, 1005 minutes, class symbol
[5] = read-out: CsgA ThT Assay (10 μM CsgA) % Control AUC at 1005 minutes, 25 μM, mean AUC as % of DMSO control, CsgA 10 μM, black plates, compound 25 μM, 1005 minutes
[6] = read-out: CsgA ThT Assay (10 μM CsgA) % Control AUC at 1005 minutes, 100 μM (activity range), CsgA 10 μM, black plates, compound 100 μM, 1005 minutes, class symbol
[7] = read-out: CsgA ThT Assay (10 μM CsgA) % Control AUC at 1005 minutes, 100 μM, mean AUC as % of DMSO control, CsgA 10 μM, black plates, compound 100 μM, 1005 minutes
[8] = Escherichia coli, read-out: Reporter Assay Abs IC50, activity range, class symbol
[9] = read-out: CsgA ThT Assay (2 μM CsgA) % Control Bmax 25 μM, activity range, class symbol, CsgA 2 μM, white plates, compound 25 μM
[10] = read-out: CsgA ThT Assay (2 μM CsgA) % Control Bmax 25 μM, mean Bmax as percentage of DMSO control, CsgA 2 μM, white plates, compound 25 μM
[11] = read-out: CsgA ThT Assay (2 μM CsgA) % Control Bmax 100 μM, activity range, class symbol, CsgA 2 μM, white plates, compound 100 μM
[12] = read-out: CsgA ThT Assay (2 μM CsgA) % Control Bmax 100 μM, mean Bmax as percentage of DMSO control, CsgA 2 μM, white plates, compound 100 μM

T1 sequence (P28307 23-151): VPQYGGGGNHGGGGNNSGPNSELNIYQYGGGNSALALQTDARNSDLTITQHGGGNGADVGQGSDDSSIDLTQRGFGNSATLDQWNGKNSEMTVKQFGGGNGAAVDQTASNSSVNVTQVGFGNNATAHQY

## Cn1c(=O)c2c(ncn2CCCCCCN2CC(C(=O)O)n3c(c(-c4cccc(C(F)(F)F)c4)c(Cc4cccc5ccccc45)cc3=O)S2(=O)=O)n(C)c1=O (centres unmarked) [Compound 035, 2-(6-(1,3-dimethyl-2,6-dioxo-1,2,3,6-tetrahydro-7H-purin-7-yl)hexyl)-8-(naphthalen-1-ylmethyl)-6-oxo-9-(3-(trifluoromethyl)phenyl)-3,4-dihydro-2H,6H-pyrido[1,2-e][1,2,5]thiadiazine-4-carboxylic acid 1,1-dioxide]
[1]; [2]
  IC50: 1.3 to 4.5 µM
[1]; [3]
  IC50: 1.5 µM
E. coli CsgA; [4]
  remaining activity at 25 µM: > 60%
E. coli CsgA; [5]
  remaining activity at 25 µM: 65%

## CN1CC(C(=O)O)n2c(c(-c3cccc(C(F)(F)F)c3)c(Cc3cccc4ccccc34)c(N3CCOCC3)c2=O)S1(=O)=O (centres unmarked) [Compound 079, 2-methyl-7-morpholino-8-(naphthalen-1-ylmethyl)-6-oxo-9-(3-(trifluoromethyl)phenyl)-3,4-dihydro-2H,6H-pyrido[1,2-e][1,2,5]thiadiazine-4-carboxylic acid 1,1-dioxide]
[1]; [2]
  IC50: > 10 µM
[1]; [3]
  IC50: 10.7 µM
E. coli CsgA; [4]
  remaining activity at 25 µM: 31 to 60%
E. coli CsgA; [5]
  remaining activity at 25 µM: 40%
E. coli CsgA; [6]
  remaining activity at 100 µM: 11 to 31%
E. coli CsgA; [7]
  remaining activity at 100 µM: 14%

## CCCCCN1CC(C(=O)O)n2c(c(-c3cccc(C(F)(F)F)c3)c(Cc3ccc(N)c4ccccc34)cc2=O)S1(=O)=O (centres unmarked) [Compound 052]
[1]; [2]
  IC50: < 1.3 µM
[1]; [3]
  IC50: 1.1 µM
E. coli CsgA; [4]
  remaining activity at 25 µM: 31 to 60%
E. coli CsgA; [5]
  remaining activity at 25 µM: 42%
E. coli CsgA; [6]
  remaining activity at 100 µM: 11 to 31%
E. coli CsgA; [7]
  remaining activity at 100 µM: 20%

## C/C=C/c1c(Cc2cccc3ccccc23)c(-c2cccc(C(F)(F)F)c2)c2n(c1=O)C(C(=O)O)CN(C)S2(=O)=O (centres unmarked) [Compound 088, (E)-2-methyl-8-(naphthalen-1-ylmethyl)-6-oxo-7-(prop-1-en-1-yl)-9-(3-(trifluoromethyl)phenyl)-3,4-dihydro-2H,6H-pyrido[1,2-e][1,2,5]thiadiazine-4-carboxylic acid 1,1-dioxide]
[1]; [2]
  IC50: 4.6 to 10 µM
[1]; [3]
  IC50: 5.2 µM
E. coli CsgA; [4]
  remaining activity at 25 µM: 31 to 60%
E. coli CsgA; [5]
  remaining activity at 25 µM: 36%
E. coli CsgA; [6]
  remaining activity at 100 µM: 11 to 31%
E. coli CsgA; [7]
  remaining activity at 100 µM: 26%

## Nc1c(Cc2cccc3ccccc23)c(-c2cccc(C(F)(F)F)c2)c2n(c1=O)C(C(=O)O)CN(C[C@H](O)[C@@H](O)[C@H](O)[C@H](O)CO)S2(=O)=O (stereo partly drawn) [Compound 105, 7-amino-8-(naphthalen-1-ylmethyl)-6-oxo-2-((2S,3R,4R,5R)-2,3,4,5,6-pentahydroxyhexyl)-9-(3-(trifluoromethyl)phenyl)-3,4-dihydro-2H,6H-pyrido[1,2-e][1,2,5]thiadiazine-4-carboxylic acid 1,1-dioxide]
[1]; [2]
  IC50: > 10 µM
[1]; [3]
  IC50: 36 µM
E. coli CsgA; [4]
  remaining activity at 25 µM: > 60%
E. coli CsgA; [5]
  remaining activity at 25 µM: 102%
E. coli CsgA; [6]
  remaining activity at 100 µM: > 60%
E. coli CsgA; [7]
  remaining activity at 100 µM: 70%

## NC(=O)c1c(Cc2cccc3ccccc23)c(-c2cccc(C(F)(F)F)c2)c2n(c1=O)C(C(=O)O)CN(CCCCO)S2(=O)=O (centres unmarked) [Compound 183, 7-carbamoyl-2-(4-hydroxybutyl)-8-(naphthalen-1-ylmethyl)-6-oxo-9-(3-(trifluoromethyl)phenyl)-3,4-dihydro-2H,6H-pyrido[1,2-e][1,2,5]thiadiazine-4-carboxylic acid 1,1-dioxide]
[1]; [3]
  IC50: 0.8 µM
[1]; [8]
  IC50: < 1.3 µM
E. coli CsgA; [9]
  remaining activity at 25 µM: 31 to 60%
E. coli CsgA; [10]
  remaining activity at 25 µM: 32%
E. coli CsgA; [11]
  remaining activity at 100 µM: 11 to 31%
E. coli CsgA; [12]
  remaining activity at 100 µM: 26%

## CCCCN1CC(C(=O)O)n2c(c(-c3cccc(C(F)(F)F)c3)c(Cc3cccc4ccccc34)c(N)c2=O)S1(=O)=O (centres unmarked) [Compound 093, 7-amino-2-butyl-8-(naphthalen-1-ylmethyl)-6-oxo-9-(3-(trifluoromethyl)phenyl)-3,4-dihydro-2H,6H-pyrido[1,2-e][1,2,5]thiadiazine-4-carboxylic acid 1,1-dioxide]
[1]; [2]
  IC50: 1.3 to 4.5 µM
[1]; [3]
  IC50: 3.6 µM
E. coli CsgA; [4]
  remaining activity at 25 µM: 31 to 60%
E. coli CsgA; [5]
  remaining activity at 25 µM: 49%
E. coli CsgA; [6]
  remaining activity at 100 µM: 31 to 60%
E. coli CsgA; [7]
  remaining activity at 100 µM: 37%

## Nc1c(Cc2cccc3ccccc23)c(-c2cccc(C(F)(F)F)c2)c2n(c1=O)C(C(=O)O)CN(CCCCO)S2(=O)=O (centres unmarked) [Compound 099, 7-amino-2-(4-hydroxybutyl)-8-(naphthalen-1-ylmethyl)-6-oxo-9-(3-(trifluoromethyl)phenyl)-3,4-dihydro-2H,6H-pyrido[1,2-e][1,2,5]thiadiazine-4-carboxylic acid 1,1-dioxide]
[1]; [2]
  IC50: > 10 µM
[1]; [3]
  IC50: 17.6 µM
E. coli CsgA; [4]
  remaining activity at 25 µM: 31 to 60%
E. coli CsgA; [5]
  remaining activity at 25 µM: 56%
E. coli CsgA; [6]
  remaining activity at 100 µM: 31 to 60%
E. coli CsgA; [7]
  remaining activity at 100 µM: 44%

## O=C(O)C1CS(=O)(=O)c2c(-c3cccc(C(F)(F)F)c3)c(Cc3cccc4ccccc34)cc(=S)n21 (single isomer, unassigned) [Compound 014b, 7-(naphthalen-1-ylmethyl)-5-thioxo-8-(3-(trifluoromethyl)phenyl)-2,3-dihydro-5H-thiazolo[3,2-a]pyridine-3-carboxylic acid 1,1-dioxide]
[1]; [2]
  IC50: > 10 µM
[1]; [3]
  IC50: 44 µM
E. coli CsgA; CsgA 10 μM, black plates, compound 25 μM, 1005 minutes, class symbol
  CsgA ThT Assay (10 μM CsgA) % Control AUC at 1005 minutes, 25 μM (activity range): (+) (% control AUC of greater than 60%)
E. coli CsgA; CsgA 10 μM, black plates, compound 100 μM, 1005 minutes, class symbol
  CsgA ThT Assay (10 μM CsgA) % Control AUC at 1005 minutes, 100 μM (activity range): (+++) (% control AUC of 11 to 31%)
E. coli CsgA; mean AUC as % of DMSO control, CsgA 10 μM, black plates, compound 25 μM, 1005 minutes
  CsgA ThT Assay (10 μM CsgA) % Control AUC at 1005 minutes, 25 μM: 71%
E. coli CsgA; mean AUC as % of DMSO control, CsgA 10 μM, black plates, compound 100 μM, 1005 minutes
  CsgA ThT Assay (10 μM CsgA) % Control AUC at 1005 minutes, 100 μM: 26%

## O=C(O)C1CN(Cc2ccccc2)c2c(-c3cccc(C(F)(F)F)c3)c(CN3CCCc4ccccc43)c(Cl)c(=O)n21 (centres unmarked) [Compound 217, 1-benzyl-6-chloro-7-((3,4-dihydroquinolin-1 (2H)-yl)methyl)-5-oxo-8-(3-(trifluoromethyl)phenyl)-1,2,3,5-tetrahydroimidazo[1,2-a]pyridine-3-carboxylic acid]
[1]; [3]
  IC50: 1.1 µM
[1]; [8]
  IC50: < 1.3 µM
E. coli CsgA; [9]
  remaining activity at 25 µM: > 60%
E. coli CsgA; [10]
  remaining activity at 25 µM: 65%

## Nc1c(Cc2cccc3ccccc23)c(-c2cccc(C(F)(F)F)c2)c2n(c1=O)C(C(=O)O)CS2 (single isomer, unassigned) [Compound 020a, 6-amino-7-(naphthalen-1-ylmethyl)-5-oxo-8-(3-(trifluoromethyl)phenyl)-2,3-dihydro-5H-thiazolo[3,2-a]pyridine-3-carboxylic acid]
[1]; [3]
  IC50: 4.4 µM
[1]; read-out: Reporter Assay Abs IC50 (activity range), median Abs IC50 in the CsgA reporter assay, class symbol
  IC50: 1.3 to 4.5 µM
E. coli CsgA; [4]
  remaining activity at 25 µM: 11 to 31%
E. coli CsgA; [5]
  remaining activity at 25 µM: 27%
E. coli CsgA; [6]
  remaining activity at 100 µM: 11 to 31%
E. coli CsgA; [7]
  remaining activity at 100 µM: 20%

## O=C(O)c1c(Cc2cccc3ccccc23)c(-c2cccc(C(F)(F)F)c2)c2n(c1=O)C(C(=O)O)CN2Cc1ccccc1 (centres unmarked) [Compound 209, 1-benzyl-7-(naphthalen-1-ylmethyl)-5-oxo-8-(3-(trifluoromethyl)phenyl)-1,2,3,5-tetrahydroimidazo[1,2-a]pyridine-3,6-dicarboxylic acid]
[1]; [3]
  IC50: 6.6 µM
[1]; [8]
  IC50: 4.6 to 10 µM
E. coli CsgA; [9]
  remaining activity at 25 µM: > 60%
E. coli CsgA; [10]
  remaining activity at 25 µM: 81%
E. coli CsgA; [11]
  remaining activity at 100 µM: > 60%
E. coli CsgA; [12]
  remaining activity at 100 µM: 64%

## O=C(O)C1CN(CC2CCCC2)S(=O)(=O)c2c(-c3cccc(C(F)(F)F)c3)c(Cc3cccc4ccccc34)c(NC3CCCC3)c(=O)n21 (centres unmarked) [Compound 002, 7-(cyclopentylamino)-2-(cyclopentylmethyl)-8-(naphthalen-1-ylmethyl)-6-oxo-9-(3-(trifluoromethyl)phenyl)-3,4-dihydro-2H,6H-pyrido[1,2-e][1,2,5]thiadiazine-4-carboxylic acid 1,1-dioxide]
[1]; [3]
  IC50: 4.1 µM
[1]; [8]
  IC50: 1.3 to 4.5 µM
E. coli CsgA; [9]
  remaining activity at 25 µM: 31 to 60%
E. coli CsgA; [10]
  remaining activity at 25 µM: 60%
E. coli CsgA; [11]
  remaining activity at 100 µM: > 60%
E. coli CsgA; [12]
  remaining activity at 100 µM: 137%
